Test results published in the supplement of paper PMC10307832.

Tests used:
Test in all cases: relative viability (nuclei count vs DMSO), 5 days (fraction); higher = more cells survive
NCI-H1648 = tested on: NCI-H1648
How it was run: (§1)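 Each reported value is a median over duplicate plates. It expresses relative viability: treated-well nuclei count divided by vehicle-well nuclei count. Lung cancer cell lines in 1536-well plates were dosed by pin tool a day after seeding, alone with one drug or with a fixed anchor-drug dose plus five library-drug doses (not always all listed) in √10 steps, and nuclei were counted after 5 days.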

NCI-H1437 = tested on: NCI-H1437
How it was run: as §1

NCI-H1299 = tested on: NCI-H1299
How it was run: as §1

IA-LM = tested on: IA-LM
How it was run: as §1

NCI-H1703 = tested on: NCI-H1703
How it was run: as §1

A549 = tested on: A549
How it was run: as §1

NCI-H2085 = tested on: NCI-H2085
How it was run: as §1

HCC-44 = tested on: HCC-44
How it was run: as §1

Calu-6 = tested on: Calu-6
How it was run: as §1

HCC-366 = tested on: HCC-366
How it was run: as §1

LOU-NH91 = tested on: LOU-NH91
How it was run: as §1

EBC-1 = tested on: EBC-1
How it was run: as §1

NCI-H3122 = tested on: NCI-H3122
How it was run: as §1

CCN(CC)CCCCNc1ncc2cc(-c3cc(OC)cc(OC)c3)c(NC(=O)NC(C)(C)C)nc2n1 + O=C(c1cc(Cc2n[nH]c(=O)c3ccccc23)ccc1F)N1CCN(C(=O)C2CC2)CC1 [Olaparib] (partner 8 µM)
relative viability (NCI-H1648; first compound 0.01 µM): 0.991
relative viability (NCI-H1648; first compound 0.03162 µM): 0.767
relative viability (NCI-H1648; first compound 0.1 µM): 0.781
relative viability (NCI-H1648; first compound 0.3162 µM): 0.703
relative viability (NCI-H1648; first compound 1 µM): 0.648
relative viability (NCI-H1437; first compound 0.01 µM): 0.635
relative viability (NCI-H1437; first compound 0.03162 µM): 0.666
relative viability (NCI-H1437; first compound 0.1 µM): 0.681
relative viability (NCI-H1437; first compound 0.3162 µM): 0.642
relative viability (NCI-H1437; first compound 1 µM): 0.614
relative viability (NCI-H1299; first compound 0.01 µM): 1.03
relative viability (NCI-H1299; first compound 0.03162 µM): 0.991
relative viability (NCI-H1299; first compound 0.1 µM): 1.01
relative viability (NCI-H1299; first compound 0.3162 µM): 1.04
relative viability (NCI-H1299; first compound 1 µM): 0.998
relative viability (IA-LM; first compound 0.01 µM): 0.821
relative viability (IA-LM; first compound 0.03162 µM): 0.88
relative viability (IA-LM; first compound 0.1 µM): 0.946
relative viability (IA-LM; first compound 0.3162 µM): 0.762
relative viability (IA-LM; first compound 1 µM): 0.936
relative viability (NCI-H1703; first compound 0.01 µM): 0.313
relative viability (NCI-H1703; first compound 0.03162 µM): 0.421
relative viability (NCI-H1703; first compound 0.1 µM): 0.52
relative viability (NCI-H1703; first compound 0.3162 µM): 0.383
relative viability (NCI-H1703; first compound 1 µM): 0.388
relative viability (A549; first compound 0.01 µM): 0.273
relative viability (A549; first compound 0.03162 µM): 0.367
relative viability (A549; first compound 0.1 µM): 0.318
relative viability (A549; first compound 0.3162 µM): 0.32
relative viability (A549; first compound 1 µM): 0.349
relative viability (NCI-H2085; first compound 0.01 µM): 0.818
relative viability (NCI-H2085; first compound 0.03162 µM): 0.81
relative viability (NCI-H2085; first compound 0.1 µM): 0.792
relative viability (NCI-H2085; first compound 0.3162 µM): 0.743
relative viability (NCI-H2085; first compound 1 µM): 0.752
relative viability (HCC-44; first compound 0.01 µM): 1.06
relative viability (HCC-44; first compound 0.03162 µM): 1.07
relative viability (HCC-44; first compound 0.1 µM): 1.03
relative viability (HCC-44; first compound 0.3162 µM): 1.01
relative viability (HCC-44; first compound 1 µM): 0.942
relative viability (Calu-6; first compound 0.03162 µM): 0.583
relative viability (Calu-6; first compound 0.1 µM): 0.627
relative viability (Calu-6; first compound 0.3162 µM): 0.694
relative viability (Calu-6; first compound 1 µM): 0.556
relative viability (HCC-366; first compound 0.01 µM): 0.323
relative viability (HCC-366; first compound 0.03162 µM): 0.374
relative viability (HCC-366; first compound 0.1 µM): 0.362
relative viability (HCC-366; first compound 0.3162 µM): 0.405
relative viability (HCC-366; first compound 1 µM): 0.346
relative viability (LOU-NH91; first compound 0.01 µM): 0.895
relative viability (LOU-NH91; first compound 0.03162 µM): 0.9
relative viability (LOU-NH91; first compound 0.1 µM): 0.954
relative viability (LOU-NH91; first compound 0.3162 µM): 0.952
relative viability (LOU-NH91; first compound 1 µM): 0.884
relative viability (EBC-1; first compound 0.01 µM): 0.738
relative viability (EBC-1; first compound 0.03162 µM): 0.684
relative viability (EBC-1; first compound 0.1 µM): 0.779
relative viability (EBC-1; first compound 0.3162 µM): 0.824
relative viability (EBC-1; first compound 1 µM): 0.705
relative viability (NCI-H3122; first compound 0.01 µM): 0.642
relative viability (NCI-H3122; first compound 0.03162 µM): 0.69
relative viability (NCI-H3122; first compound 0.1 µM): 0.68
relative viability (NCI-H3122; first compound 0.3162 µM): 0.647
relative viability (NCI-H3122; first compound 1 µM): 0.71

O=c1cc(-c2cccc3c2Sc2ccccc2S3)oc(N2CCOCC2)c1 + O=C(c1cc(Cc2n[nH]c(=O)c3ccccc23)ccc1F)N1CCN(C(=O)C2CC2)CC1 [Olaparib] (partner 8 µM)
relative viability (NCI-H1648; first compound 0.253 µM): 1.01
relative viability (NCI-H1648; first compound 0.8 µM): 0.781
relative viability (NCI-H1648; first compound 8 µM): 1.2
relative viability (NCI-H1437; first compound 0.08 µM): 0.618
relative viability (NCI-H1437; first compound 0.253 µM): 0.785
relative viability (NCI-H1437; first compound 0.8 µM): 0.684
relative viability (NCI-H1437; first compound 2.53 µM): 0.615
relative viability (NCI-H1437; first compound 8 µM): 0.541
relative viability (NCI-H1299; first compound 0.08 µM): 0.951
relative viability (NCI-H1299; first compound 0.253 µM): 1.05
relative viability (NCI-H1299; first compound 0.8 µM): 1.04
relative viability (NCI-H1299; first compound 2.53 µM): 1.02
relative viability (NCI-H1299; first compound 8 µM): 0.909
relative viability (IA-LM; first compound 0.08 µM): 0.848
relative viability (IA-LM; first compound 0.253 µM): 1.07
relative viability (IA-LM; first compound 0.8 µM): 0.934
relative viability (IA-LM; first compound 2.53 µM): 0.796
relative viability (IA-LM; first compound 8 µM): 0.866
relative viability (NCI-H1703; first compound 0.08 µM): 0.314
relative viability (NCI-H1703; first compound 0.253 µM): 0.445
relative viability (NCI-H1703; first compound 0.8 µM): 0.406
relative viability (NCI-H1703; first compound 2.53 µM): 0.246
relative viability (NCI-H1703; first compound 8 µM): 0.227
relative viability (A549; first compound 0.08 µM): 0.224
relative viability (A549; first compound 0.253 µM): 0.348
relative viability (A549; first compound 0.8 µM): 0.277
relative viability (A549; first compound 2.53 µM): 0.354
relative viability (A549; first compound 8 µM): 0.363
relative viability (NCI-H2085; first compound 0.08 µM): 0.771
relative viability (NCI-H2085; first compound 0.253 µM): 0.846
relative viability (NCI-H2085; first compound 0.8 µM): 0.857
relative viability (NCI-H2085; first compound 2.53 µM): 0.762
relative viability (NCI-H2085; first compound 8 µM): 0.654
relative viability (HCC-44; first compound 0.08 µM): 0.927
relative viability (HCC-44; first compound 0.253 µM): 1.02
relative viability (HCC-44; first compound 0.8 µM): 0.972
relative viability (HCC-44; first compound 2.53 µM): 1.02
relative viability (HCC-44; first compound 8 µM): 0.951
relative viability (Calu-6; first compound 0.08 µM): 0.63
relative viability (Calu-6; first compound 0.253 µM): 0.636
relative viability (Calu-6; first compound 0.8 µM): 0.601
relative viability (Calu-6; first compound 2.53 µM): 0.599
relative viability (Calu-6; first compound 8 µM): 0.549
relative viability (HCC-366; first compound 0.08 µM): 0.421
relative viability (HCC-366; first compound 0.253 µM): 0.507
relative viability (HCC-366; first compound 0.8 µM): 0.406
relative viability (HCC-366; first compound 2.53 µM): 0.483
relative viability (HCC-366; first compound 8 µM): 0.357
relative viability (LOU-NH91; first compound 0.08 µM): 0.875
relative viability (LOU-NH91; first compound 0.253 µM): 0.945
relative viability (LOU-NH91; first compound 0.8 µM): 0.866
relative viability (LOU-NH91; first compound 2.53 µM): 0.863
relative viability (LOU-NH91; first compound 8 µM): 0.917
relative viability (EBC-1; first compound 0.08 µM): 0.618
relative viability (EBC-1; first compound 0.253 µM): 0.831
relative viability (EBC-1; first compound 0.8 µM): 0.732
relative viability (EBC-1; first compound 2.53 µM): 0.619
relative viability (EBC-1; first compound 8 µM): 0.324
relative viability (NCI-H3122; first compound 0.08 µM): 0.658
relative viability (NCI-H3122; first compound 0.253 µM): 0.745
relative viability (NCI-H3122; first compound 0.8 µM): 0.584
relative viability (NCI-H3122; first compound 2.53 µM): 0.604
relative viability (NCI-H3122; first compound 8 µM): 0.63
